Key:
Format in all cases: cell-based
[1] = tested on: Trypanosoma cruzi amastigotes cultured in 3T3 fibroblast cells; test: Assay for growth inhibition of kinetoplastid parasite Trypanosoma cruzi (beta-galactosidase Tulahuen strain, CPRG readout); conditions: Trypanosoma cruzi, Fibroblast, T. cruzi amastigotes in 3T3 fibroblast cells; read-out: Buckner infectious T. cruzi EC50
How it was run: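 3T3 fibroblasts (1,000 cells/well) plated overnight, treated with compound in DMSO, then infected with 10,000 Lac-Z-expressing Tulahuen trypomastigotes. After 6 days, 0.6 mM CPRG with 0.6% NP-40 added for 2 h at room temperature; absorbance gives relative intracellular amastigote numbers. Benznidazole and nifurtimox serve as positive controls.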

[2] = tested on: Leishmania donovani axenic amastigote; test: In vitro assay for growth inhibition of Leishmania donovani axenic amastigote (Cell TiterGlo luminescence); conditions: Leishmania donovani, L. donovani axenic amastigotes in vitro; read-out: L. donovani amastigotes EC50
How it was run: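 Axenic L. donovani amastigotes (9600/well) grown at 37 °C, 5% CO2 in supplemented RPMI 1640, pH 5.5, with compound added from DMSO. After two days, viability read by CellTiter-Glo luminescence against DMSO and control-compound wells.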

[3] = tested on: L. donovani HU3 strain in mouse peritoneal macrophages; test: Assay for inhibition of parasitemia of Leishmania donovani in mouse macrophages (SYBR Green nuclei count, high-content imaging); conditions: Leishmania donovani, Peritoneal macrophage, L. donovani in mouse peritoneal macrophages; read-out: L. donovani in Mouse Macrophages EC50
How it was run: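 Peritoneal macrophages from uninfected BALB/c mice were infected for 24 h with spleen-derived L. donovani HU3 (4×10^5 parasites per 2×10^4 macrophages), then cultured with compound for 5 days at 37° C, 5% CO2. After fixation and permeabilization, parasite nuclei were stained with SYBR Green and counted by high-content imaging.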

[4] = tested on: Trypanosoma brucei brucei (Lister 427) strain; test: Assay for growth inhibition against Trypanosoma brucei brucei (Cell TiterGlo ATP luminescence); conditions: Trypanosoma brucei, T. brucei brucei (Lister 427); read-out: T. Brucei (HAT) EC50
How it was run: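 T. b. brucei Lister 427 grown in HMI-9 with 10% FBS and 10% serum plus, seeded at 10,000 parasites/mL with 10-point threefold compound dilutions in duplicate, 37 °C for 2 days. Viability read as ATP luminescence 30 min after Cell TiterGlo; IC50 versus untreated controls.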

SMILES	EC50 [1] [nM]	EC50 [2] [nM]	EC50 [3] [nM]	EC50 [4] [nM]
O=C(Nc1ccc(F)c(-n2cc3cc(N4CCOCC4)cnc3n2)c1)N1CC(F)C1 [Compound 132, 3-fluoro-N-{4-fluoro-3-[5-(morpholin-4-yl)-2H-pyrazolo[3,4-b]pyridin-2-yl]phenyl}azetidine-1-carboxamide]	13	11	7	< 23
CN(C)c1cnc2nn(-c3cc(NC(=O)N4CC[C@@H](F)C4)ccc3F)cc2c1 [Compound 133, (3R)-N-{3-[5-(dimethylamino)-2H-pyrazolo[3,4-b]pyridin-2-yl]-4-fluorophenyl}-3-fluoropyrrolidine-1-carboxamide]	5.9	12	8	< 23
O=C(Nc1ccc(F)c(-n2cc3cc(N4CCCC4)cnc3n2)c1)N1CC[C@@H](F)C1 [Compound 134, (3R)-3-fluoro-N-{4-fluoro-3-[5-(pyrrolidin-1-yl)-2H-pyrazolo[3,4-b]pyridin-2-yl]phenyl}pyrrolidine-1-carboxamide]	20	23	5.4	< 23
O=C(Nc1ccc(F)c(-n2cc3cc(N4CCOCC4)cnc3n2)c1)N1CC[C@@H](F)C1 [Compound 135, (3R)-3-fluoro-N-{4-fluoro-3-[5-(morpholin-4-yl)-2H-pyrazolo[3,4-b]pyridin-2-yl]phenyl}pyrrolidine-1-carboxamide]	6.6	4.6	8.6	< 23
CC(C)OC(=O)Nc1cnc2nn(-c3cc(NC(=O)N4CC[C@@H](F)C4)ccc3F)cc2c1 [Compound 136]	170	30	19	< 23
O=C(Nc1ccc(F)c(-n2cc3cc(N4CCOCC4)cnc3n2)c1)N1CCC1 [Compound 137, N-{4-fluoro-3-[5-(morpholin-4-yl)-2H-pyrazolo[3,4-b]pyridin-2-yl]phenyl}azetidine-1-carboxamide]	5.1	8.8	6	< 23
CC(C)OC(=O)Nc1cnc2nn(-c3cc(NC(=O)N4CCC4)ccc3F)cc2c1 [Compound 138, propan-2-yl N-(2-{5-[(azetidine-1-carbonyl)amino]-2-fluorophenyl}-2H-pyrazolo[3,4-b]pyridin-5-yl)carbamate]	47	11	5.7	< 23
CNc1cnc2nn(-c3cc(NC(=O)c4ccco4)ccc3F)cc2c1 [Compound 139, N-{4-fluoro-3-[5-(methylamino)-2H-pyrazolo[3,4-b]pyridin-2-yl]phenyl}furan-2-carboxamide]	3000	740	320	< 23
CN(C)c1cnc2nn(-c3cc(NC(=O)c4ccco4)ccc3F)cc2c1 [Compound 140, N-{3-[5-(dimethylamino)-2H-pyrazolo[3,4-b]pyridin-2-yl]-4-fluorophenyl}furan-2-carboxamide]	23	100	41	< 23
O=C(Nc1ccc(F)c(-n2cc3cc(N4CCCC4)cnc3n2)c1)c1ccco1 [Compound 141, N-{4-fluoro-3-[5-(pyrrolidin-1-yl)-2H-pyrazolo[3,4-b]pyridin-2-yl]phenyl}furan-2-carboxamide]	22	80	12	< 23
CNC(=O)Nc1ccc(F)c(-n2cc3cc(NC)cnc3n2)c1 [Compound 142, 1-{4-fluoro-3-[5-(methylamino)-2H-pyrazolo[3,4-b]pyridin-2-yl]phenyl}-3-methylurea]	11000	7800	9200	4300
O=C(Nc1ccc(F)c(-n2cc3cc(N4CCC4)cnc3n2)c1)N1CC(F)(F)C1 [Compound 144, N-{3-[5-(azetidin-1-yl)-2H-pyrazolo[3,4-b]pyridin-2-yl]-4-fluorophenyl}-3,3-difluoroazetidine-1-carboxamide]	17	23	23	< 23
O=C(Nc1ccc(F)c(-n2cc3cc(N4CCOCC4)cnc3n2)c1)N1CC(F)(F)C1 [Compound 145, 3,3-difluoro-N-{4-fluoro-3-[5-(morpholin-4-yl)-2H-pyrazolo[3,4-b]pyridin-2-yl]phenyl}azetidine-1-carboxamide]	18	5.4	4.7	< 23
CC(C)OC(=O)Nc1cnc2nn(-c3cc(NC(=O)N4CC(F)(F)C4)ccc3F)cc2c1 [Compound 146, propan-2-yl N-(2-{5-[(3,3-difluoroazetidine-1-carbonyl)amino]-2-fluorophenyl}-2H-pyrazolo[3,4-b]pyridin-5-yl)carbamate]	85	26	12	< 23
O=C(Nc1ccc(F)c(-n2cc3cc(N4CCC4)cnc3n2)c1)N1CC(F)C1 [Compound 147, N-{3-[5-(azetidin-1-yl)-2H-pyrazolo[3,4-b]pyridin-2-yl]-4-fluorophenyl}-3-fluoroazetidine-1-carboxamide]	4.8	6.1	26	< 23
O=C(Nc1ccc(F)c(-n2cc3cc(C4CCOCC4)cnc3n2)c1)N1CC(F)C1 [Compound 148, 3-fluoro-N-{4-fluoro-3-[5-(oxan-4-yl)-2H-pyrazolo[3,4-b]pyridin-2-yl]phenyl}azetidine-1-carboxamide]	14	8.1	12	< 23
O=C(Nc1ccc(F)c(-n2cc3cc(N4CCC4)cnc3n2)c1)N1CC[C@@H](F)C1 [Compound 149]	5.4	11	7.9	< 23
O=C(Nc1ccc(F)c(-n2cc3cc(C4CCOCC4)cnc3n2)c1)N1CC[C@@H](F)C1 [Compound 150, (R)-3-fluoro-N-(4-fluoro-3-(5-(tetrahydro-2H-pyran-4-yl)-2H-pyrazolo[3,4-b]pyridin-2-yl)phenyl)pyrrolidine-1-carboxamide]	21	14	25	< 23
O=C(Nc1ccc(F)c(-n2cc3cc(N4CCC4)cnc3n2)c1)c1ccco1 [Compound 151, N-{3-[5-(azetidin-1-yl)-2H-pyrazolo[3,4-b]pyridin-2-yl]-4-fluorophenyl}furan-2-carboxamide]	12	60	13	< 23
O=C(Nc1ccc(F)c(-n2cc3cc(CC(F)(F)F)cnc3n2)c1)N1CC(F)C1 [Compound 152, 3-fluoro-N-(4-fluoro-3-(5-(2,2,2-trifluoroethyl)-2H-pyrazolo[3,4-b]pyridin-2-yl)phenyl)azetidine-1-carboxamide]	1.7	3.7	5.3	< 23
CNc1cnc2nn(-c3cc(NC(=O)c4oc(C)nc4C)ccc3F)cc2c1 [Compound 153, N-{4-fluoro-3-[5-(methylamino)-2H-pyrazolo[3,4-b]pyridin-2-yl]phenyl}-2,4-dimethyl-1,3-oxazole-5-carboxamide]	150	210	27000	500
Cc1nc(C)c(C(=O)Nc2ccc(F)c(-n3cc4cc(N(C)C)cnc4n3)c2)o1 [Compound 154, N-{3-[5-(dimethylamino)-2H-pyrazolo[3,4-b]pyridin-2-yl]-4-fluorophenyl}-2,4-dimethyl-1,3-oxazole-5-carboxamide]	23	53	78	37
Cc1nc(C)c(C(=O)Nc2ccc(F)c(-n3cc4cc(N5CCC5)cnc4n3)c2)o1 [Compound 155, N-{3-[5-(azetidin-1-yl)-2H-pyrazolo[3,4-b]pyridin-2-yl]-4-fluorophenyl}-2,4-dimethyl-1,3-oxazole-5-carboxamide]	18	53	22	< 23
Cc1nc(C)c(C(=O)Nc2ccc(F)c(-n3cc4cc(N5CCCC5)cnc4n3)c2)o1 [Compound 157, N-{4-fluoro-3-[5-(pyrrolidin-1-yl)-2H-pyrazolo[3,4-b]pyridin-2-yl]phenyl}-2,4-dimethyl-1,3-oxazole-5-carboxamide]	13	25	18	< 23
Cc1nc(C)c(C(=O)Nc2ccc(F)c(-n3cc4cc(N5CCOCC5)cnc4n3)c2)o1 [Compound 158, N-{4-fluoro-3-[5-(morpholin-4-yl)-2H-pyrazolo[3,4-b]pyridin-2-yl]phenyl}-2,4-dimethyl-1,3-oxazole-5-carboxamide]	15	16	16	< 23

Reference: US11384078B2, “5,6-fused-bicyclic compounds and compositions for the treatment of parasitic diseases” (NOVARTIS AG, priority 2017, dated 2022)
